Test results taken from patent publication US20250332173A1, “COMPOUNDS AND METHODS FOR MODULATING NUCLEIC ACID SPLICING” (REMIX THERAPEUTICS INC., priority 2021, published 2025).
Where two headings read alike, the source gives them in different places.

What was measured:
HTT = assay: HiBiT protein abundance assay, HTT HiBiT K562 cell line; assay type: cell-based, human; conditions: 24 hours, top dose 10 μM
In short: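 Endogenous targets in K562 knock-in lines carried a HiBiT tag and were treated for 24 h at 37 °C with 10-point 3-fold dilutions (top 10 μM final, DMSO ≤0.25%). Abundance was read as lytic Nano-Glo HiBiT luminescence. IC50 came from a four-parameter logistic fit of normalized response.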

Target C = assay: HiBiT protein abundance assay, Target C HiBiT K562 cell line; assay type: cell-based; conditions: Homo sapiens; HiBiT lytic detection, modified K562 cells, 24 hours, top dose 10 μM; read-out: Effect on protein abundance, Target C (IC50)
Description: • Promega Nano-Glo HiBiT Lytic Detection System (cat #N3030) • Corning 384-well TC-treated microplates (cat #3570) • Synthego Engineered Cells Knock-In Clones
Cells were maintained in IMDM with 10% FBS. Before the assay, cells were diluted with […] growth media (IMDM+[…] media) and were seeded in a 384-well plate at a density of 10,000 cells/well (for each cell line listed in Table 5). Each compound was prepared as a 10-point 3-fold serial dilution in DMSO with the top dose at a final concentration of 10 μM in the well. Unmodified K562 cells were added at the previously specified density with DMSO to serve as an assay baseline and positive control (PC) and DMSO only with the respective modified cell lines was added to the negative control (NC) columns. Final DMSO concentration was kept at or below 0.25%. Treated cell plates were placed in an incubator at 37° C. with […] for 24 hours. After 24 hours, 25 μL of Complete HiBit Lytic reagent was added to each well at room temperature (e.g. one plate requiring 10 mL Lytic Buffer, 100 μL LgBiT Protein, 200 μL Lytic Substrate), shaken for 5 minutes at 600 RPM, then left to sit for 10 minutes for signal to stabilize before reading on a Spark Cyto plate reader (Tecan) with a 500 ms measurement time.
To determine compound effects on protein abundance of each target in Table 5, the percent response for each respective cell line was calculated at each compound concentration as follows:
For the normalized response at each concentration, a four-parameter logistical regression was fit to the data and the response was interpolated at the […] to determine a concentration for protein abundance at […] the untreated control.

[1] = HiBiT lytic detection, modified K562 cells, read-out: Effect on protein abundance, HTT (IC50)
[2] = HiBiT K562 cell line, read-out: Effect on protein abundance, HTT (IC50 category)

Row | Structure (SMILES) | IC50 (HTT; [1]) [nM] | IC50 (Target C) [nM] | IC50 (HTT; [2]) [nM]
1 | CCN1CCC(n2ncc3nc(-c4cc(C)c5nc(C)cn5n4)ccc3c2=O)CC1 [Compound 1308] | < 100 | 100 to 1000 | 
2 | Cc1cn2nc(-c3ccc4c(=O)n(C5CCN(CCF)CC5)ncc4n3)cc(C)c2n1 [Compound 1309] | 100 to 1000 | 100 to 1000 | 
3 | Cn1cc2cc(-c3ccc4c(=O)n(C5CCNC6(CC6)C5)ncc4n3)c(O)cc2n1 (stereo not shown) [Compound 1306] | 100 to 1000 | 100 to 1000 | 
4 | CN1CCC(n2ncc3nc(-c4cc5cn(C)nc5cc4O)ccc3c2=O)CC1 [Compound 1307] | 1000 to 10000 | 1000 to 10000 | 
5 | Cc1cn2nc(-c3ccc4c(=O)n(C5CCNCC5)ncc4n3)cc(C)c2n1 [Compound 1247] | < 100 | < 100 | 
6 | CCN1CCC(n2ncc3nc(-c4cc5cn(C)nc5cc4O)ccc3c2=O)CC1 [Compound 1310] | 1000 to 10000 | 1000 to 10000 | 
7 | Cc1cn2nc(-c3ccc4c(=O)n(C5CCN(C)CC5)ncc4n3)cc(C)c2n1 [Compound 1311] | 100 to 1000 | 100 to 1000 | 
8 | Cn1cc2cc(-c3ncc4c(=O)n(C5CCNCC5)ccc4n3)cc(F)c2n1 [Compound 1212, 2-(7-fluoro-2-methyl-2H-indazol-5-yl)-6-(piperidin-4-yl)pyrido[4,3-d]pyrimidin-5(6H)-one] |  |  | < 100
9 | Cc1cn2cc(-c3ncc4c(=O)n(C5CCNC5)ccc4n3)cc(C#N)c2n1 (stereo not shown) [Compound 1221] |  |  | 100 to 1000
10 | Cc1c(O)c(-c2ncc3c(=O)n(C4CCNC4)ccc3n2)cc2cn(C)nc12 (stereo not shown) [Compound 1222] |  |  | > 10000
11 | Cc1cn2nc(-c3ccc4c(=O)n([C@H]5CCNC5)ccc4n3)cc(C)c2n1 [Compound 1437, 2-(2,8-dimethylimidazo[1,2-b]pyridazin-6-yl)-6-[(3S)-pyrrolidin-3-yl]-1,6-aphthyridin-5-one] |  |  | 1000 to 10000
12 | Cn1cc2cc(-c3ccc4c(=O)n(C5CCNCC5)cnc4c3)ccc2n1 [Compound 182] |  |  | 1000 to 10000
